In patent US8945566B2, “Methods for improving the bioactivity of therapeutic IgE antibodies for the treatment of disease” (Quest PharmaTech, Inc., priority 2008, dated 2015):

What was measured:
[1] = tested on: transgenic mice expressing the human FcεRIα; experiment: passive cutaneous anaphylaxis with tumor microspheroids; assay type: in vivo; settings: agent administered to the mouse
Protocol: Passive cutaneous anaphylaxis is performed in transgenic mice expressing the human FcεRIα. Transgenic mice are shaved and injected intradermally in different regions of the dorsal side with […] of 6 mg/ml histamine base (HollisterStier, Spokane, Wash.), 1 μg anti-PSA IgE, CT26-PSA or CT26-Neo microspheroid alone, 2 μg of crosslinker anti-human kappa antibody alone, 1 μg anti-PSA IgE plus CT26-PSA or CT26-Neo microspheroid, or 1 μg anti-PSA IgE crosslinked with 2 μg of an anti-human kappa antibody. After 15 min, 1% Evans Blue in […] saline is injected i.v. Mice are sacrificed 20 min later, and local cutaneous anaphylaxis is assessed visually by the blue leakage in the area surrounding the injection. […] This effect is not prevented by administration of cortisol to the mouse; however pre-administration of an H1 blocking agent inhibits the size of the response.

[2] = tested on: SKBR3 human breast cancer cells; experiment: histamine release and tumor cell killing with effector cells (PBMC or RBL-Sx-38); assay type: cell-based; settings: poly IC 1 to 25 μg/ml added 30 minutes to 4 hours post co-incubation
Protocol: Tumor cells are incubated with increasing concentrations of Her-2 specific IgG or IgE and combined with the effector cells. Evidence of local effector cell activation is measured by assessing histamine and or beta hexosimimidase release into the culture supernatant. Confirmatory experiments showing specificity for the Her-2 Ag can be conducted using anti-NP IgE and NP-HSA or anti-PSA IgE and PSA or conjugated PSA. In addition to immediate hypersensitivity, the target cells can be pre-labeled with Calcein AM and the ability of the anti-Her2 IgE or IgG to induce tumor killing can be monitored via direct effect of the PBMC or the RBL-Sx-38 cells in inducing release of the Calcein AM label.
Having established the baseline activity of a representative Ag specific IgE monoclonal in terms of both histamine release and basic tumor cell killing, the effect of corticosteroid and specific adjuvant on the model can be measured. […] The ability of TLR3 stimulation to augment the ADCC effect is addressed by adding low concentrations (1 to 25 μg/ml) of poly IC (Sigma) to the system at various time points.

Row | Compound | effect of co-medication on IgE-induced wheal and flare reaction [1] | cell killing (ADCC effect) [2]
1 | C[C@]12CCC(=O)C=C1CC[C@@H]1[C@@H]2[C@@H](O)C[C@@]2(C)[C@H]1CC[C@]2(O)C(=O)CO [cortisol] | not prevented | –
2 | poly IC | – | enhances the amount of killing observed
